melting point [°C] | Compound
120 to 122 | O=c1c2cccnc2c(-c2cccc(Cl)c2)cn1CC1CC1
71 to 72 | OC1(c2ccccc2)CCN(CCN2CCN(Cc3cc(C(F)(F)F)cc(C(F)(F)F)c3)CC2c2ccc(Cl)c(Cl)c2)CC1 (stereo not drawn)
203 | CC(C)(C)OC(=O)NCCCCC(=O)Nc1cc(C(=O)O)ccc1Cl
61 to 62 | CC1CCC(C(C)C)C(OC(=O)CCC(=O)OC2CC(C)CCC2C(C)C)C1 (single isomer, unassigned; (-))
224 to 225 | O=C(NCc1ccc(Cl)cc1)c1cn2c3c(cc(C#CCO)cc3c1=O)CC2CO (stereo not drawn)
177 to 178 | Cc1ccc2c(c1)C(C1=CCN(C(C)O)CC1)CC2(O)c1ccc(F)cc1 (stereo not drawn)
230 to 232 | O=C(O)c1ccc(CSc2nnc(S)s2)cc1
65 to 75 | CCCCCCCCCCCCCC(C)S(=O)(=O)NC(=O)Nc1c(C(C)C)cccc1C(C)C (stereo not drawn)
83 to 85.5 | CCCCCS(=O)(=O)NC(=O)/C=C/c1ccc(OC(COCC)COCC)cc1Oc1ncc(C(F)(F)F)cc1Cl
169 to 172 | CCOC(=O)c1cncc(-c2cnc3c(c2)N(Cc2cc(F)ccc2F)CCN3)c1
144 | CCCCOc1ccc(S(=O)(=O)C2(C(=O)O)CCN(Cc3ccccc3)CC2)cc1
185 to 186 | Cc1cc(C2=NN=C(C(=O)O)Cc3cc4c(cc32)OCO4)ccc1[N+](=O)[O-]
236 to 238 | COc1ccccc1C(=O)NCc1cccc2c1CN(C1CCC(=O)NC1=O)C2=O (stereo not drawn)
> 280 | NC(CCCCNC(=O)OCc1ccccc1)C(=O)NC1c2ccccc2-c2ccccc21 (stereo not drawn)
111 to 112 | CC(=O)c1c(-c2ccccc2)sc(-c2ccncc2)c1C
130 to 132 | O=C(OCC1OC(n2cc(F)c(=O)[nH]c2=O)CC1OCc1ccccc1)c1cccnc1 (stereo not drawn)
121 | Cc1nc(C)c(Cl)c(NCc2nccc(SCCCSCC3CN(C)C(=O)O3)c2C)n1 (stereo not drawn)
99 to 103 | CC(C)(C)NC(=O)[C@@H]1C[C@H](Cl)CN1C(=O)[C@@H](O)[C@H](Cc1ccccc1)NC(=O)[C@H](CCS(C)(=O)=O)NC(=O)OCc1ccccc1
119 to 120 | O=C(NC(=NCCCCc1cccnc1)NCCCc1c[nH]cn1)c1ccccc1
95 to 96 | CCOC(=O)c1cn(Cc2ccccc2)nc1OCc1cccc(OCc2nc(-c3ccccc3)oc2C)c1
168 to 170 | OCc1cn(-c2cccc3cccnc23)cn1
141 to 142 | CNC(=O)C(C)Nc1nc(-c2ccc(F)c3ccccc23)cc(C(C)C)n1 (stereo not drawn)
164 | O=C(Nc1ccccc1S(=O)(=O)c1ccccc1)N[C@@H](Cc1ccc(Oc2nccc3ccncc23)cc1)C(=O)O
126 to 128 | COc1ccc(C(=O)NCCCN2CCN(C(c3ccccc3)c3ccccc3)CC2)cc1

melting point [°C] | Compound
> 245 | CCCCc1nc2c(N)nc3ccccc3c2n1CCNC(=S)Nc1ccc(-c2c3ccc(=O)cc-3oc3cc(O)ccc23)c(C(=O)O)c1
116 to 119 | COc1ccc(/C=C(\C#N)c2ccc(Br)cc2)cc1OC1CCCC1
130 | CCCCc1nc2c(N)nc(C)c(C)c2n1CCCCNS(C)(=O)=O
220 to 222 | CC12CC(O)C3(F)C(CCC4=CC(=O)C=CC43C)C1CC=C2SCOC(=O)c1ccccc1 (stereo not drawn)
163 to 164 | CC(C)(C)OC(=O)N[C@@H](Cc1ccc(-c2ccccc2)cc1)C(=O)NCCC#N
102 to 118 | Cc1c(C)c2c(c(C)c1O)C(O)CC(C)(COc1ccc(CC3SC(=O)NC3=O)cc1)O2 (stereo not drawn)
> 300 | O=C(NN1CCNC1=O)c1c[nH]c2cc(O)c(O)cc2c1=O
126 to 127 | O=C(CCCS(=O)c1ccc(Cl)cc1)NO (stereo not drawn)
140 | OC(c1ccccc1)(C1CC1)C(c1cccc(Cl)c1)n1ccnc1 (stereo not drawn)
79 to 81 | CC(C)(C)C(=O)C=Cc1ccc(C2OCCO2)cc1
104 | O=C(NCC(=O)N(CC(=O)N1CCCCC1c1ccccc1)c1ccccc1)Nc1cccc(CO)c1 (racemic)
181 to 182 | CN1CCN(Cc2cc(-c3ccccc3)c3c(n2)OCCN(Cc2cc(C(F)(F)F)cc(C(F)(F)F)c2)C3=O)CC1
116 to 118 | Cn1cc(C(O)(c2ccc3c(cnn3C(=O)NC3CC3)c2)C(F)(F)F)c2ccccc21 (stereo not drawn)
178 to 180 | CC(=O)N1CCC(C(C)(O)c2ccc(Cl)cc2)CC1 (stereo not drawn)
173 to 174 | CN(C)c1nc(N)nc2c1ncn2C1C=CC(CO)C1 (stereo not drawn)
152 to 154 | Cc1cc(C2CCN(S(=O)(=O)C(C)(C)C(=O)NO)CC2)ccc1-c1cccc(OC[C@@H](O)CO)c1
154 to 156 | Cc1[nH]cnc1/C=C/C(=O)c1c(C)sc2ccccc12
164 to 168 | O=C1c2ccc(Cl)cc2C(O)N1CCBr (stereo not drawn)
103 to 106 | CCOC[PH](=O)SCCSCCNC(=O)CCCCCn1c(=O)n(C)c(=O)c2[nH]cnc21 (stereo not drawn)
123 to 124 | O=S(=O)(c1ccccc1)N1CCC(C(=Nc2ccc(F)cc2)c2ccc(F)cc2)CC1
142 | CCCOc1ccc(CCNC(=O)C(F)(F)F)cc1S(=O)(=O)N=CN(C)C
233 to 235 | CC=C1CCC2C3CCC4CC(O)CCC4(C)C3C(=NO)CC12C (stereo not drawn)
124 to 125 | CCCCCCCCCCCCCCCCN1C(=O)C2=C(c3cccs3)N(CCCCCCCCCCCCCCCC)C(=O)C2=C1c1cccs1
239 to 240 | Cc1nc2c(N)nc3cccnc3c2n1Cc1cc(-c2ccc(F)cc2)no1

Second part, the compound before the results:

Compound | melting point [°C]
CCOC(=O)c1[nH]c(-c2ccc(Cl)cc2)nc1C | 237 to 238
Nc1c2c(nc3ccccc13)CCc1cn(Cc3ccccc3)nc1-2 | 206 to 207
CCOC(NC(=O)c1ccccc1)C(N)=O (stereo not drawn) | 148 to 150
N#CC1CN1C(=O)CNC(=O)c1ccccc1 (stereo not drawn) | 78 to 81
N=C(N)NOCc1ccccc1 | 104 to 105
N#CC(C#N)=CN(Cc1ccc(Cl)c(Cl)c1)c1cc(C(F)(F)F)cc(C(F)(F)F)c1 | 102 to 103
CC(C)(C)CNc1nc(C#N)nc2ccc(OCc3ccncc3)cc12 | 203 to 205
O=c1oc(-c2ccc(C#Cc3ccccc3)cc2)cc(O)c1SCCc1ccccc1 | 181 to 182
CCOC(=O)C1CCc2c(n(C(=O)c3ccc(Cl)cc3)c3ccc(Cl)cc23)C1 (stereo not drawn) | 129 to 132
Clc1cc(Cl)n2ncc(Br)c2n1 | 73 to 75
CNc1cc(Oc2ccc3c(C(=O)Nc4ccc(F)c(C(F)(F)F)c4)cncc3c2)ncn1 | 255 to 257
O=S1(=O)c2cccc3cccc(c23)N1CCCN1CCN(c2ccc(O)cc2)CC1 | 185
CC(=O)c1cn(-c2c(Cl)cc(C(F)(F)F)cc2Cl)nc1C(F)(F)F | 134
CCCCCNC(=O)N(C)c1cccc(-c2ccc(/C=C(\OCC)C(=O)O)cc2)n1 | 162
NC(=O)C=Cc1ccc(NC(=O)C=C2CC(C(=O)OCc3ccccc3)Nc3cc(Cl)cc(Cl)c32)cc1 (racemic) | > 250
O=C(OCc1ccccc1)[C@@H](CC1=CCCC1)OS(=O)(=O)c1ccccc1[N+](=O)[O-] | 122 to 124
CC(C)c1ccc(N(Cc2ccc(N(C)C)cc2)C(=O)C2CCCc3cc(OCc4ccccc4)ccc32)cc1 (stereo not drawn) | 107 to 109
CCc1noc(-c2ncc3[nH]c4c(c3c2COC)CCCC4)n1 | 197 to 199
CCOC(=O)c1ccc2c(c1)C(=C1CCN(C)CC1)c1ccccc1CC2 | 85 to 87
C=CCOC(=O)c1ccc(C(=O)NCc2ccc3c(c2CO)C(C)(C)CCC3(C)C)cc1 | 140 to 145
S=C(NCc1cccnc1)NC(=Nc1ccccc1)c1ccccc1 | 146 to 147
CN(C)Cc1ccc(Cl)cc1C(=O)c1ccccc1F | 91 to 92
Cc1sc(C(N)=O)c2c1-c1c(cnn1C)CC2 | 184 to 185

Compound | melting point [°C]
CCOC(=O)Cc1cc2c(N=C3SC[C@@H]4Cc5ccccc5CN34)cccc2cn1 | 112
CC(C)(C)NNC(=O)c1ccc(Cl)cc1 | 116 to 122
O=C(O)CCn1ccn(C2CCc3ccccc3C2)c1=S (stereo not drawn) | 167 to 168
CCOC(=O)COc1ccc(N(C)Cc2ccc(-c3ccc(C(F)(F)F)cc3)nc2C)cc1CCCOC | 72 to 73
Cc1nc2c(OCc3c(Cl)ccc(S(=O)(=O)N4CCC[C@H]4C(=O)NCCCN)c3Cl)cccn2c1Br | 75
CCOC(=O)CC(c1ccccc1)N(C(=O)CNC(=O)Nc1cccc(C)c1)c1ccccc1 (racemic) | 146
NC(=O)Nc1cccc2c1C(=O)c1c-2n[nH]c1-c1ccc(N2CCNCC2)cc1 | 257
Nc1ccc2c(c1)C(=O)CCO2 | 136 to 137
CC(=O)OC(C)OC(=O)[C@H](Cc1ccc(-c2c(C)n(C)c(=O)n(C)c2=O)cc1)NC(=O)c1c(C)cccc1Cl (stereo partly drawn) | 84 to 88
O=c1c(Br)c(N2CCC(c3ccccc3)CC2)ccn1CC1CC1 | 150
Cc1ccc(N2C(=O)C(O)=C(C(=O)c3ccc(C(C)C)cc3)C2c2ccc(Cn3ncnn3)cc2)nn1 (stereo not drawn) | 271
NC(=O)N1CC(Oc2ccccc2)C1 | 179 to 186
COC(=O)[C@@H](O)[C@@H](OC(C)=O)[C@H](OC(C)=O)[C@H](C=O)OC(C)=O | 104 to 110
COc1cccc(-c2nc3c4ccccc4ccn3n2)c1 | 159 to 160
CSC1C(=O)Nc2c(-c3ccccc3)cccc21 (stereo not drawn) | 164 to 166
C[C@@H]1CN(C(=O)[C@@](C)(O)C(F)(F)F)[C@@H](C)CN1S(=O)(=O)c1ccc(C(=O)O)cc1 | 194 to 196
Cc1ccc(-n2c3ccc(C)cc3c3cc(-n4ccnc4-c4nccn4-c4ccc5c(c4)c4cc(C)ccc4n5-c4ccc(C)cc4)ccc32)cc1 | 208 to 214
Oc1cc2c(cc1O)-c1ccccc1C2 | 155 to 156
Cc1sc2c(c1C)C(c1ccc(Cl)cc1)=NCc1nnc(C)n1-2 | > 250
CC(C)Nc1cccnc1N1CCN(C(=O)c2ccc(C(=O)NCCCn3ccnc3)cn2)CC1 | 105 to 108
Cc1nc2c(N)nc3ccccc3c2n1CCC1(O)CCCCC1 | > 252
O=c1c2ccccc2[nH]c2c(OCCCCBr)cccc12 | 180 to 181

From a melting point compilation (Tetko et al.; mined from patent text by program, amines drawn as free bases though some values may be those of a salt)
